Assays:
human TLR7 = molecular target: T1, human TLR7 (Homo sapiens, UniProt Q9NYK1); test: TLR7 inhibition reporter assay (HEK-Blue cells, SEAP reporter, gardiquimod stimulation); format: cell-based; conditions: HEK-Blue cells overexpressing human TLR7, SEAP reporter, gardiquimod 7.5 μM; read-out: TLR7 IC50
T1 construct: host or cells: HEK-Blue cells
T1 sequence (Q9NYK1 27-1049): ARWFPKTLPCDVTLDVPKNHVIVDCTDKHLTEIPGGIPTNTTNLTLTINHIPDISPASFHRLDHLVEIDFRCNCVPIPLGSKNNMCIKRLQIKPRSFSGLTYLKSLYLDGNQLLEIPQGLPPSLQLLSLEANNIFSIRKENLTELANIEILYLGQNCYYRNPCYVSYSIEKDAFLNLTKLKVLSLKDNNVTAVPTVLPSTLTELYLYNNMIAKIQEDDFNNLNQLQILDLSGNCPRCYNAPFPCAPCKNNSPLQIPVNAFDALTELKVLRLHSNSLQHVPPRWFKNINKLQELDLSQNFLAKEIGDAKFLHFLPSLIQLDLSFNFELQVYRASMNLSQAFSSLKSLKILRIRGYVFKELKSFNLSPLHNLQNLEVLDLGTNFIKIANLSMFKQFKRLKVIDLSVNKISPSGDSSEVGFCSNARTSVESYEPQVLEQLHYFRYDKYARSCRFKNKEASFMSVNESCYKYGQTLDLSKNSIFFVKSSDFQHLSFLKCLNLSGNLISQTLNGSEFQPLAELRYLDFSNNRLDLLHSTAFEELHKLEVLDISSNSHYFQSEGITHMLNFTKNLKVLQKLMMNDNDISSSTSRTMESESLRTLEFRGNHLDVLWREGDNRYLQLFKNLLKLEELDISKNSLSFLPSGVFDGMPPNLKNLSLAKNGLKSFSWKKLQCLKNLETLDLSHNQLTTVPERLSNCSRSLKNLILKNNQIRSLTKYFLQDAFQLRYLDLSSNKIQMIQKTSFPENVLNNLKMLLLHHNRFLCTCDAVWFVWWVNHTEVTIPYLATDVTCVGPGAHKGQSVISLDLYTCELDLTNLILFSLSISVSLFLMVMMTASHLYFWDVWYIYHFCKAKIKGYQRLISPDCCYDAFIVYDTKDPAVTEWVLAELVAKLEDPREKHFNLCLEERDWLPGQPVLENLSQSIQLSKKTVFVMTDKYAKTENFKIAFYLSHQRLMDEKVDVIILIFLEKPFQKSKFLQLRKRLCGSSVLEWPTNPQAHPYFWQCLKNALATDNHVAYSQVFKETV
Method: (§1) TLR7/8/9 Inhibition Reporter Assays
(§2) HEK-Blue™-cells (Invivogen) overexpressing human TLR7, TLR8 or TLR9 receptors were used for screening inhibitors of these receptors using an inducible SEAP (secreted embryonic alkaline phosphatase) reporter gene under the control of the IFN-β minimal promoter fused to five NF-κB and AP-1-binding sites. Briefly, cells are seeded into Greiner 384 well plates (15000 cells per well for TLR7, 20,000 for TLR8 and 25,000 for TLR9) and then treated with test compounds in DMSO to yield a final dose response concentration range of 0.05 nM-50 μM. After a 30 minute compound pre-treatment at room temperature, the cells are then stimulated with a TLR7 ligand (gardiquimod at a final concentration of 7.5 μM), TLR8 ligand (R848 at a final concentration of 15.9 μM) or TLR9 ligand (ODN2006 at a final concentration of 5 nM) to activate NF-κB and AP-1 which induce the production of SEAP. After a 22 hour incubation at 37° C., 5% CO2, SEAP levels are determined with the addition of HEK-Blue™ Detection reagent (Invivogen), a cell culture medium that allows for detection of SEAP, according to manufacturer's specifications. The percent inhibition is determined as the % reduction in the HEK-Blue signal present in wells treated with agonist plus DMSO alone compared to wells treated with a known inhibitor.

human TLR8 = molecular target: T2, human TLR8 (Homo sapiens, UniProt Q9NR97); test: TLR8 inhibition reporter assay (HEK-Blue cells, SEAP reporter, R848 stimulation); format: cell-based; conditions: HEK-Blue cells overexpressing human TLR8, SEAP reporter, R848 15.9 μM; read-out: TLR8 IC50
T2 construct: host or cells: HEK-Blue cells
T2 sequence (Q9NR97 27-1041): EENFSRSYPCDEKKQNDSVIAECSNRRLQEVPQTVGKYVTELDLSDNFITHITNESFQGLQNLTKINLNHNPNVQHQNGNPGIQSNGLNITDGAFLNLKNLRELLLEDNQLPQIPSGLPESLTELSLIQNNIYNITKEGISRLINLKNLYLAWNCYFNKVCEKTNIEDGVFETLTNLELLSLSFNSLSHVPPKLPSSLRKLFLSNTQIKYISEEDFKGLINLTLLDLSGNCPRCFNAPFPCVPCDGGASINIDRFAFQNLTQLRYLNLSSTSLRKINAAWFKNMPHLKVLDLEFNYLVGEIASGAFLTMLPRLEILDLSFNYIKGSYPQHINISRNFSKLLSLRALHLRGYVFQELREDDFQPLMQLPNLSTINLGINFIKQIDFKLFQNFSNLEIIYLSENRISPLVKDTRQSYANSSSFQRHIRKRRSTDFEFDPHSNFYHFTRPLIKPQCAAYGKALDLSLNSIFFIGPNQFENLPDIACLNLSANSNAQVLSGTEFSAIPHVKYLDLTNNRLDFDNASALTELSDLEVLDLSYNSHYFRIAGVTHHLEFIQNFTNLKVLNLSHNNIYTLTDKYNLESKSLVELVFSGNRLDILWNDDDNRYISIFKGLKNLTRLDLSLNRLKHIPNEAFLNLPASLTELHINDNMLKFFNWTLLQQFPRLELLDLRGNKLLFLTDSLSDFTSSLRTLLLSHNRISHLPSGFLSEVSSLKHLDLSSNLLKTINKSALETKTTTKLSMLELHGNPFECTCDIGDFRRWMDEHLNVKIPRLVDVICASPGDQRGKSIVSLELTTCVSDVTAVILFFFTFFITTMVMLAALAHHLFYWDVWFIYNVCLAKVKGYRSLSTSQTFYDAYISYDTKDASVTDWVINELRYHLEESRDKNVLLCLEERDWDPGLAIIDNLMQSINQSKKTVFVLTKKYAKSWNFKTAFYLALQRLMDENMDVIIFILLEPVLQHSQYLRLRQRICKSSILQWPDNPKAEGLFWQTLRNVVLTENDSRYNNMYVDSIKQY
Method: as §1, §2

IC50 (human TLR7) | IC50 (human TLR8) | SMILES
5.22 nM | 20.2 nM | CNC(=O)CN1CCN(c2nc3c(C(C)C)c(-c4cn5ncnc5c(C)c4C)[nH]c3s2)[C@H](C)C1 [Example 315, (R)-2-(4-(5-(7,8-dimethyl-[1,2,4]triazolo[1,5-a]pyridin-6-yl)-6-isopropyl-4H-pyrrolo[3,2-d]thiazol-2-yl)-3-methylpiperazin-1-yl)-N-methylacetamide]
12 nM | 52.4 nM | Cc1c(-c2[nH]c3sc(N4CCN(C5COC5)C[C@H]4C)nc3c2C(C)C)cn2ncnc2c1C [Example 316, (R)-5-(7,8-dimethyl-[1,2,4]triazolo[1,5-a]pyridin-6-yl)-6-isopropyl-2-(2-methyl-4-(oxetan-3-yl)piperazin-1-yl)-4H-pyrrolo[3,2-d]thiazole]
15.5 nM | 11.1 nM | Cc1c(-c2[nH]c3sc(N4C[C@@H](C)N(CC(=O)N(C)C)C[C@@H]4C)nc3c2C(C)C)cn2ncnc2c1C [Example 335, 2-((2R,5S)-4-(5-(7,8-dimethyl-[1,2,4]triazolo[1,5-a]pyridin-6-yl)-6-isopropyl-4H-pyrrolo[3,2-d]thiazol-2-yl)-2,5-dimethylpiperazin-1-yl)-N,N-dimethylacetamide]
19.6 nM | 12.6 nM | CNC(=O)CN1CCN(c2nc3c(C(C)C)c(-c4cn5ncnc5c(C)c4C)[nH]c3s2)[C@@H](C)C1 [Example 342, (S)-2-(4-(5-(7,8-dimethyl-[1,2,4]triazolo[1,5-a]pyridin-6-yl)-6-isopropyl-4H-pyrrolo[3,2-d]thiazol-2-yl)-3-methylpiperazin-1-yl)-N-methylacetamide]
24.1 nM | 3.3 nM | Cc1c(-c2[nH]c3sc(N4CCN(CC(=O)N(C)C)C[C@@H]4C)nc3c2C(C)C)cn2ncnc2c1C [Example 343, (S)-2-(4-(5-(7,8-dimethyl-[1,2,4]triazolo[1,5-a]pyridin-6-yl)-6-isopropyl-4H-pyrrolo[3,2-d]thiazol-2-yl)-3-methylpiperazin-1-yl)-N,N-dimethylacetamide]
39 nM | 12.7 nM | Cc1c(-c2[nH]c3sc(N4CCN(CCS(C)(=O)=O)C[C@@H]4C)nc3c2C(C)C)cn2ncnc2c1C [Example 344, (S)-5-(7,8-dimethyl-[1,2,4]triazolo[1,5-a]pyridin-6-yl)-6-isopropyl-2-(2-methyl-4-(2-(methylsulfonyl)ethyl)piperazin-1-yl)-4H-pyrrolo[3,2-d]thiazole]

More lines, now with the values behind:

SMILES | IC50 (human TLR7) | IC50 (human TLR8)
Cc1c(-c2[nH]c3sc(N4CCN(CC(N)=O)CC4)nc3c2C(C)C)cn2ncnc2c1C [Example 285, 2-(4-(5-(7,8-dimethyl-[1,2,4]triazolo[1,5-a]pyridin-6-yl)-6-isopropyl-4H-pyrrolo[3,2-d]thiazol-2-yl)piperazin-1-yl)acetamide] | 7.7 nM | 2.71 nM
Cc1c(-c2[nH]c3sc(N4CCN(C5COC5)CC4)nc3c2C(C)C)cn2ncnc2c1C [Example 286, 5-(7,8-dimethyl-[1,2,4]triazolo[1,5-a]pyridin-6-yl)-6-isopropyl-2-(4-(oxetan-3-yl)piperazin-1-yl)-4H-pyrrolo[3,2-d]thiazole] | 25.6 nM | 14.6 nM
Cc1c(-c2[nH]c3sc(N4CC5(C4)CN(C4COC4)C5)nc3c2C(C)C)cn2ncnc2c1C [Example 302, 5-(7,8-dimethyl-[1,2,4]triazolo[1,5-a]pyridin-6-yl)-6-isopropyl-2-(6-(oxetan-3-yl)-2,6-diazaspiro[3.3]heptan-2-yl)-4H-pyrrolo[3,2-d]thiazole] | 9.44 nM | 14.2 nM
Cc1c(-c2[nH]c3sc(N4CC5(CN(CCS(C)(=O)=O)C5)C4)nc3c2C(C)C)cn(C)c(=O)c1C [Example 305, 5-(6-isopropyl-2-(6-(2-(methylsulfonyl)ethyl)-2,6-diazaspiro[3.3]heptan-2-yl)-4H-pyrrolo[3,2-d]thiazol-5-yl)-1,3,4-trimethylpyridin-2(1H)-one] | 311 nM | 70 nM
Cc1c(-c2[nH]c3sc(N4CC5(C4)CN(C4COC4)C5)nc3c2C(C)C)cn(C)c(=O)c1C [Example 306, 5-(6-isopropyl-2-(6-(oxetan-3-yl)-2,6-diazaspiro[3.3]heptan-2-yl)-4H-pyrrolo[3,2-d]thiazol-5-yl)-1,3,4-trimethylpyridin-2(1H)-one] | 148 nM | 124 nM
Cc1c(-c2[nH]c3sc(N4CC5(CN(CC6CCOCC6)C5)C4)nc3c2C(C)C)cn(C)c(=O)c1C [Example 307, 5-(6-isopropyl-2-(6-((tetrahydro-2H-pyran-4-yl)methyl)-2,6-diazaspiro[3.3]heptan-2-yl)-4H-pyrrolo[3,2-d]thiazol-5-yl)-1,3,4-trimethylpyridin-2(1H)-one] | 118 nM | 9.33 nM
Cc1c(-c2[nH]c3sc(N4CCN(CC(=O)N(C)C)C[C@H]4C)nc3c2C(C)C)cn2ncnc2c1C [Example 312, (R)-2-(4-(5-(7,8-dimethyl-[1,2,4]triazolo[1,5-a]pyridin-6-yl)-6-isopropyl-4H-pyrrolo[3,2-d]thiazol-2-yl)-3-methylpiperazin-1-yl)-N,N-dimethylacetamide] | 5.42 nM | 17.8 nM
Cc1c(-c2[nH]c3sc(N4CCN(CC(N)=O)C[C@H]4C)nc3c2C(C)C)cn2ncnc2c1C [Example 313, (R)-2-(4-(5-(7,8-dimethyl-[1,2,4]triazolo[1,5-a]pyridin-6-yl)-6-isopropyl-4H-pyrrolo[3,2-d]thiazol-2-yl)-3-methylpiperazin-1-yl)acetamide] | 3.71 nM | 1.72 nM
Cc1c(-c2[nH]c3sc(N4CCN(CCS(C)(=O)=O)C[C@H]4C)nc3c2C(C)C)cn2ncnc2c1C [Example 314, (R)-5-(7,8-dimethyl-[1,2,4]triazolo[1,5-a]pyridin-6-yl)-6-isopropyl-2-(2-methyl-4-(2-(methylsulfonyl)ethyl)piperazin-1-yl)-4H-pyrrolo[3,2-d] thiazole] | 13.9 nM | 18.5 nM
